Earlier results as cited in patent US9603803B2, “Process for preparing spray dried formulations of 4-[[6-amino-5-bromo-2-[(4-cyanophenyl)amino]-4-pyrimidinyl]oxy]-3,5-dimethylbenzonitrile” (JANSSEN SCIENCES IRELAND UC, priority 2006, dated 2017).

## Cc1cc(C#N)cc(C)c1Oc1nc(Nc2ccc(C#N)cc2)nc(N)c1Br [TMC125, 4-[[6-amino-5-bromo-2-[(4-cyanophenyl)amino]-4-pyrimidinyl]oxy]-3,5-dimethylbenzonitrile]
other
  water-solubility: poor
Wild type HIV
  activity against wild type HIV: pronounced activity
Many mutated variants
  activity against many mutated variants: pronounced activity
